{
  "source": "patent US12485140B2",
  "about": "“Transmission prevention of viruses with application of antiseptic composition” (Solventum Intellectual Properties Company, priority 2019, dated 2025)",
  "key": {"[1]": {"tested_on": "Vero 76 cells", "details": "African green monkey"}, "[2]": {"tested_on": "SARS-CoV-2 virus", "experiment": "In vitro viricidal assay against SARS-CoV-2 (CCID50 end-point titer on Vero 76 cells)", "details": "22 ± 2° C.; for Log Reduction Value (LRV): compared to the virus control; for Virus Titer: mean of 3 replicates"}},
  "data": [
    {"smiles": "CCO", "note": "[CE19, Ethanol]", "values": [
      {"measurement": "dilutions of the neutralized sample showing toxicity toward Vero 76 cells", "setting": "[1]", "result": "1/10 dilution"},
      {"measurement": "Log Reduction Value (LRV)", "setting": "[2]; incubation time 0.5 min", "result": 2.4},
      {"measurement": "Virus Titer", "setting": "[2]; incubation time 0.5 min", "result": "<1.7 Log10 CCID50 of virus per mL"},
      {"measurement": "Log Reduction Value (LRV)", "setting": "[2]; incubation time 1 min", "result": 2.1},
      {"measurement": "Virus Titer", "setting": "[2]; incubation time 1 min", "result": "<1.7 Log10 CCID50 of virus per mL"},
      {"measurement": "Log Reduction Value (LRV)", "setting": "[2]; incubation time 2 min", "result": 2.3},
      {"measurement": "Virus Titer", "setting": "[2]; incubation time 2 min", "result": "<1.7 Log10 CCID50 of virus per mL"}
    ]}
  ]
}
